The values below come from patent US8008312B2, “CXCR4 antagonists for the treatment of HIV infection” (Emory University, priority 2005, dated 2011).

The subject of one data set is SHIV. The data set is described as follows: Phenoscreen viral entry inhibition assay, SHIV. The data set is classed as cell-based. How it is done: (§1) A selected set of compounds were tested for their ability to inhibit the cellular entry of T-tropic HIV. The assay for this inhibition has been carried out on a contractural basis at Monogram Biosciences, Inc. using their well established Phenoscreen™ assay. Briefly, HIV strains of interest are tagged with a luciferase indicator gene to create an appropriate test vector. The test vector is amplified through transfection and the resulting virus is incubated in the presence of target host cells where intracellular florescence activity then becomes a measure of infection. Amplified virus is exposed to target host cells in the presence of a range of test drug concentrations to determine IC50 measurements of entry inhibition. A modification of this test has been further reapplied as a novel drug assay that has been used in partnership with a number of pharmaceutical companies to test the effectiveness of novel entry inhibitors that target specific chemokines. It can used to detect activity against T-tropic, M-tropic, and dual-tropic viruses and Monogram Biosciences has a large bank of over 10,000 different virus strains to ultimately asses the range of applicability of our CXCR4 antagonists. Certain compounds have been tested to establish efficacy in a number of viral strains.

The subject of the next data set is MDA-MB-231 cells. In words: Cell viability of MDA-MB-231 cells. It counts as cell-based. The note with it: even at 100 μM (the highest concentration tested).
In a further data set the test system is Vrs-3. The data set is described as follows: Phenoscreen viral entry inhibition assay, Vrs-3. It counts as cell-based, HIV. The settings on record: Human immunodeficiency virus 1, read-out: Viral Entry Inhibition Vrs-3. Here is the method: as §1
The test system of the next data set is Vrs-1. The data set is described as follows: Phenoscreen viral entry inhibition assay, Vrs-1. It counts as cell-based, HIV. The note with it: Human immunodeficiency virus 1, read-out: Viral Entry Inhibition Vrs-1. How it is done: as §1
In the next data set the test system is Vrs-2. The data set is described as follows: Phenoscreen viral entry inhibition assay, Vrs-2. The data set is classed as cell-based, HIV. The settings on record: Human immunodeficiency virus 1, read-out: Viral Entry Inhibition Vrs-2. How it is done:
as §1

A further data set concerns NL4-3. The data set is described as follows: Phenoscreen viral entry inhibition assay, NL4-3. The data set is classed as cell-based, HIV. The note with it: Human immunodeficiency virus 1, NL43, read-out: Viral Entry Inhibition NL4-3. Here is the method: as §1
In another data set the target is CXCR4 (Homo sapiens, UniProt P61073). In words: Competition assay using biotin-labeled TN14003 on tumor cells. The note with it: FIG. 5, cells pre-incubated with various concentrations; read-out: IC50 (biotin-labeled TN14003 detection of CXCR4 after pre-incubation). It counts as binding. Here is the method: Biotin-labeled TN14003 was used to detect CXCR4 protein from the cells pre-incubated with various concentrations of WZZL811S.
Using biotin-labeled TN14003 along with streptavidin-conjugated rhodamine allowed a determination of the binding efficiency of these chemicals to the SDF-1 binding site of CXCR4 on tumor cells and compared it to AMD3100-SDF-1 interactions (FIG. 4). […] Cells were pre-incubated with different concentrations of AMD3100. […] Therefore, one of these compounds, WZZL811S, was selected to study its therapeutic potential based on potency and low toxicity to cells (FIG. 6).

In another data set the test system is HXB2. The data set is described as follows: Phenoscreen viral entry inhibition assay, HXB2. It counts as cell-based, HIV. The note with it: Human immunodeficiency virus 1, HXB2, read-out: Viral Entry Inhibition HXB2. Here is the method:
as §1

The next data set has as its system Dual. In words: Phenoscreen viral entry inhibition assay, Dual. It counts as cell-based, HIV. The settings on record: Human immunodeficiency virus 1, read-out: Viral Entry Inhibition Dual. Here is the method:
as §1

The structures appear in SMILES notation.

Sequence of CXCR4 (P61073 whole entry): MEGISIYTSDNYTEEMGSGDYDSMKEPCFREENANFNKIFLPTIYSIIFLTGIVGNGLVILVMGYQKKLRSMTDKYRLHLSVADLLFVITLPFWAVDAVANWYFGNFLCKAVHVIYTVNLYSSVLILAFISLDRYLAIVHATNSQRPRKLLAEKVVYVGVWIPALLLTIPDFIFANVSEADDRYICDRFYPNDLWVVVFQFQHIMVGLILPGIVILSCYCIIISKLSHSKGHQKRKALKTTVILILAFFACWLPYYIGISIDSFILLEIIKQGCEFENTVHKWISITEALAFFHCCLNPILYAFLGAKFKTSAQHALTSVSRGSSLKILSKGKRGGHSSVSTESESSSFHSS

In the case of `c1ccc(NCc2ccc(CNc3ccccn3)cc2)nc1` [WZZL811S], the IC50 with SHIV was over 15 µM; in the data set on Vrs-3, over 15 µM; in the data set on Vrs-1, over 15 µM; in the data set with Vrs-2, about 12 µM; in the data set with NL4-3 it was over 15 µM; at CXCR4, under 0.001 µM. Moreover, the IC50 with HXB2 and with Dual was over 15 µM in each case. The “cell viability of MDA-MB-231 cells” value in the data set on MDA-MB-231 cells was “did not decrease cell viability”.
